PubChem BioAssay AID2060902 (Molecular Pharmacology Branch, DTP, NCI, 2025)
pIC50: −log10 of the molar value.

Test system: 485368-065-R3-J5-PDC spheroids with HUVEC/MSC, viability
Experiment: Anticancer human tumor 485368-065-R3-J5-PDC patient-derived pancreatic carcinoma cell line growth inhibition [RAS]
Conditions: for pIC50: curve of first compound; for viability, T/C: stronger effect = lower value; active = viability on the fitted dose curve at most 10% of control; inactive = the rest
Outline: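 Multi-cell-type spheroids: tumor cells plus HUVEC endothelial cells and mesenchymal stem cells. RAS-pathway inhibitors were combined with targeted agents, each dosed in half-log steps down from clinical Cmax, or from 10 microM when Cmax was unknown.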

[1] = second compound 0.000949 µM, first compound 0.00316 µM
[2] = second compound 0.000949 µM, first compound 0.01 µM
[3] = second compound 0.000949 µM, first compound 0.0316 µM
[4] = second compound 0.000949 µM, first compound 0.1 µM
[5] = second compound 0.000949 µM, first compound 0.316 µM
[6] = second compound 0.000949 µM, first compound 1 µM
[7] = second compound 0.003 µM, first compound 0.00316 µM
[8] = second compound 0.003 µM, first compound 0.01 µM
[9] = second compound 0.003 µM, first compound 0.0316 µM
[10] = second compound 0.003 µM, first compound 0.1 µM
[11] = second compound 0.003 µM, first compound 0.316 µM
[12] = second compound 0.003 µM, first compound 1 µM
[13] = second compound 0.00949 µM, first compound 0.00316 µM
[14] = second compound 0.00949 µM, first compound 0.01 µM
[15] = second compound 0.00949 µM, first compound 0.0316 µM
[16] = second compound 0.00949 µM, first compound 0.1 µM
[17] = second compound 0.00949 µM, first compound 0.316 µM
[18] = second compound 0.00949 µM, first compound 1 µM
[19] = second compound 0.03 µM, first compound 0.00316 µM
[20] = second compound 0.03 µM, first compound 0.01 µM
[21] = second compound 0.03 µM, first compound 0.0316 µM
[22] = second compound 0.03 µM, first compound 0.1 µM
[23] = second compound 0.03 µM, first compound 0.316 µM
[24] = second compound 0.03 µM, first compound 1 µM
[25] = second compound 0.0949 µM, first compound 0.00316 µM
[26] = second compound 0.0949 µM, first compound 0.01 µM
[27] = second compound 0.0949 µM, first compound 0.0316 µM
[28] = second compound 0.0949 µM, first compound 0.1 µM
[29] = second compound 0.0949 µM, first compound 0.316 µM
[30] = second compound 0.0949 µM, first compound 1 µM
[31] = second compound 0.3 µM, first compound 0.00316 µM
[32] = second compound 0.3 µM, first compound 0.01 µM
[33] = second compound 0.3 µM, first compound 0.0316 µM
[34] = second compound 0.3 µM, first compound 0.1 µM
[35] = second compound 0.3 µM, first compound 0.316 µM
[36] = second compound 0.3 µM, first compound 1 µM
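Note: spheroids exposed to agents for seven days before readout.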

C=CC(=O)Nc1cc(Nc2nccc(-c3cn(C)c4ccccc34)n2)c(OC)cc1N(C)CCN(C)C + CCn1c(-c2cc(N3CCN(C)CC3)cnc2C(C)OC)c2c3cc(ccc31)-c1csc(n1)CC(NC(=O)C1CC1C)C(=O)N1CCCC(N1)C(=O)OCC(C)(C)C2
inactive: viability, T/C [1] 38.2% | viability, T/C [2] 34.1% | viability, T/C [3] 30.4% | viability, T/C [4] 28.6% | viability, T/C [5] 25.3% | viability, T/C [6] 17.8% | viability, T/C [7] 21.1% | viability, T/C [8] 19.9% | viability, T/C [9] 18.6% | viability, T/C [10] 14.6% | viability, T/C [11] 13.4% | viability, T/C [12] 10.9% | viability, T/C [13] 16.4% | viability, T/C [14] 15.7% | viability, T/C [15] 15.5% | viability, T/C [16] 13.1% | viability, T/C [17] 9.97% | viability, T/C [19] 13% | viability, T/C [20] 11.8% | viability, T/C [21] 9.7% | viability, T/C [25] 8.87%
active: viability, T/C [18] 7.7% | viability, T/C [22] 9.51% | viability, T/C [23] 7.35% | viability, T/C [24] 5.44% | viability, T/C [26] 9.53% | viability, T/C [27] 8.8% | viability, T/C [28] 6.02% | viability, T/C [29] 6.17% | viability, T/C [30] 3.77% | viability, T/C [31] 8.98% | viability, T/C [32] 8.98% | viability, T/C [33] 7.33% | viability, T/C [34] 7.51% | viability, T/C [35] 4.7% | viability, T/C [36] 3.38%
> 8.50: pIC50 (second compound 0.000949 µM) | pIC50 (second compound 0.003 µM) | pIC50 (second compound 0.00949 µM) | pIC50 (second compound 0.03 µM) | pIC50 (second compound 0.0949 µM) | pIC50 (second compound 0.3 µM)

O=C(c1ccc(F)c(F)c1Nc1ccc(I)cc1F)N1CC(O)([C@@H]2CCCCN2)C1 + CCn1c(-c2cc(N3CCN(C)CC3)cnc2C(C)OC)c2c3cc(ccc31)-c1csc(n1)CC(NC(=O)C1CC1C)C(=O)N1CCCC(N1)C(=O)OCC(C)(C)C2
inactive: viability, T/C [1] 32.9% | viability, T/C [2] 29.9% | viability, T/C [3] 22.8% | viability, T/C [4] 17.6% | viability, T/C [5] 12.8% | viability, T/C [7] 19.3% | viability, T/C [8] 20.3% | viability, T/C [9] 14.9% | viability, T/C [10] 10.8% | viability, T/C [13] 16.1% | viability, T/C [14] 12.9% | viability, T/C [19] 10.3%
active: viability, T/C [6] 3.33% | viability, T/C [11] 4.68% | viability, T/C [12] 1.33% | viability, T/C [15] 10.6% | viability, T/C [16] 5.68% | viability, T/C [17] 1.77% | viability, T/C [18] 1.26% | viability, T/C [20] 8.49% | viability, T/C [21] 6.41% | viability, T/C [22] 2.18% | viability, T/C [23] 1.53% | viability, T/C [24] 1.44% | viability, T/C [25] 6.98% | viability, T/C [26] 5.08% | viability, T/C [27] 3% | viability, T/C [28] 1.9% | viability, T/C [29] 1.88% | viability, T/C [30] 1.97% | viability, T/C [31] 6.37% | viability, T/C [32] 3.9% | viability, T/C [33] 2.16% | viability, T/C [34] 2.03% | viability, T/C [35] 2.03% | viability, T/C [36] 2.14%
> 8.50: pIC50 (second compound 0.000949 µM) | pIC50 (second compound 0.003 µM) | pIC50 (second compound 0.00949 µM) | pIC50 (second compound 0.03 µM) | pIC50 (second compound 0.0949 µM) | pIC50 (second compound 0.3 µM)
